From ChEMBL document CHEMBL2375272, “Identification of RC-33 as a potent and selective σ1 receptor agonist potentiating NGF-induced neurite outgrowth in PC12 cells. Part 2: g-scale synthesis, physicochemical characterization and in vitro metabolic stability” (Bioorg Med Chem, 2013)

Legend:
[1] = Drug metabolism in human plasma after 4 hrs by UPLC-UV/PAD method; format: ADME, cell-free; conditions: read-out: Drug metabolism
Blood [2] = assay: Metabolic stability in rat blood after 4 hrs by UPLC-UV/PAD method; format: ADME, tissue-based
[3] = Solubility of the compound in water by UV spectrophotometric analysis; format: physicochemical
[4] = Drug metabolism in rat liver S9 fraction assessed as oxidative metabolism after 4 hrs by UPLC-UV-PAD method in presence of NADPH; format: ADME, subcellular; conditions: read-out: Drug metabolism
[5] = Drug metabolism in rat plasma after 4 hrs by UPLC-UV/PAD method; format: ADME, cell-free; conditions: read-out: Drug metabolism
[6] = Half life in rat liver S9 fraction by UPLC-UV-PAD method in presence of NADPH; format: ADME, subcellular
[7] = Solubility of the compound in physiological solution by UV spectrophotometric analysis; format: physicochemical
[8] = Drug metabolism in rat liver S9 fraction assessed as non-oxidative metabolism after 4 hrs by UPLC-UV-PAD method; format: ADME, subcellular; conditions: read-out: Drug metabolism
[9] = Drug metabolism in dog plasma after 4 hrs by UPLC-UV/PAD method; format: ADME, cell-free, Canis lupus familiaris; conditions: read-out: Drug metabolism
[10] = Half life in human liver S9 fraction by UPLC-UV-PAD method in presence of NADPH; format: ADME, subcellular
[11] = Drug metabolism in human liver S9 fraction assessed as non-oxidative metabolism after 4 hrs by UPLC-UV-PAD method; format: ADME, subcellular; conditions: read-out: Drug metabolism
[12] = Drug metabolism in human liver S9 fraction assessed as oxidative metabolism after 4 hrs by UPLC-UV-PAD method in presence of NADPH; format: ADME, subcellular; conditions: read-out: Drug metabolism
Blood [13] = assay: Metabolic stability in mouse blood after 4 hrs by UPLC-UV/PAD method; format: ADME, tissue-based
[14] = Solubility of the compound in phosphate buffer at pH 7.4 by UV spectrophotometric analysis; format: physicochemical

metabolised at 4 h [1]: 6%
Stability (Blood [2]): Stable
solubility [3]: 33 mg/mL
metabolised at 4 h [4]: 65%
metabolised at 4 h [5]: 6%
half-life [6]: 1.89 h
solubility [7]: 8 mg/mL
metabolised at 4 h [8]: 30%
metabolised at 4 h [9]: 25%
half-life [10]: 2.17 h
metabolised at 4 h [11]: 30%
metabolised at 4 h [12]: 69%
Stability (Blood [13]): Stable
solubility [14]: 32 mg/mL
Structure (SMILES): CC(CCN1CCCCC1)c1ccc(-c2ccccc2)cc1.Cl (racemic)
